Reference: publication PMC7970304, “The Effects of Apelin and Elabela Ligands on Apelin Receptor Distinct Signaling Profiles” (Frontiers in Pharmacology, 2021)
Entries after “also recorded” stand apart in the source; their conditions may differ.

Biological target: T1, APJ (Apelin receptor) (Homo sapiens, UniProt P35414)
T1 sequence (P35414 1-380): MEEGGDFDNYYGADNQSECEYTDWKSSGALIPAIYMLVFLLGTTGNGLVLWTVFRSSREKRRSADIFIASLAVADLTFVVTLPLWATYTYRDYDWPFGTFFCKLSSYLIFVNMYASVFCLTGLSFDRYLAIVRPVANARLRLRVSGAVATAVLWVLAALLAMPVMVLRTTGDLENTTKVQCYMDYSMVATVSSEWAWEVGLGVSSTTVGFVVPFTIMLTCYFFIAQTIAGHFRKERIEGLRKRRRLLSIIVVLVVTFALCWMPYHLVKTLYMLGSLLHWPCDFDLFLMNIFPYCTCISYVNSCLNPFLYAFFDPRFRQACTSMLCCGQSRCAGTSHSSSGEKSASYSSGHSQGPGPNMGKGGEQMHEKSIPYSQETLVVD
Experiment: Analysis of ligand bias across APJ pathways
Type: cell-based
Design: APJ membrane preparations were obtained from transiently transfected HEK293 cells; host or cells: HEK293 cells, transiently transfected; membranes prepared
Conditions: reference ligand Apelin-13, reference pathway calcium release
Method: The concentration-response data for the ligands in various assays were analyzed to determine the biases of the ligands for G protein dependent signaling or β-arrestin dependent signaling, according to a previously published method ([Kenakin et al., 2012]; [Hager et al., 2016]; [Hothersall et al., 2017]). Briefly, the concentration-response data for each ligand were fitted to the Black-Leff operation model to obtain the values of τ and K A, using the following equation: Response=[[…] where [A] is the concentration of the agonist, E m is the maximal response of the system, n is the transducer slope, and K A and τ describe the affinity and efficacy of the agonist, respectively. In the data fitting, the reparametrized form of the equation proposed by [Kenakin et al. (2012)] was used: Response=[…]β2} where β 1 and β 2 are the natural logarithm of K A and τ, respectively, and E m was set to 1. […] The ΔΔlog (τ/K A), or Log (Bias), which is the logarithm of the bias factor for a given pathway over a reference pathway (here, intracellular calcium release), was calculated for each ligand as Δlog (τ/K A)-Δlog (τ/K A)Calcium. The 95% confidence interval (CI) was expressed as the mean ± standard error; Log (Bias) values, whose 95% CI crosses 0, were considered statistically insignificant.

## CSCC[C@H](NC(=O)[C@@H]1CSSC[C@H](NC(=O)[C@H](CC(N)=O)NC(=O)[C@H](Cc2c[nH]cn2)NC(=O)[C@H](CCCCN)NC(=O)[C@H](CCCNC(=N)N)NC(=O)[C@@H](N)CC(C)C)C(=O)N[C@@H](CC(C)C)C(=O)N[C@@H](CCC(N)=O)C(=O)N[C@@H](CCCNC(=N)N)C(=O)N[C@@H](CCCNC(=N)N)C(=O)N1)C(=O)N1CCC[C@H]1C(=O)N[C@@H](CC(C)C)C(=O)N[C@@H](Cc1c[nH]cn1)C(=O)N[C@@H](CO)C(=O)N[C@@H](CCCNC(=N)N)C(=O)N[C@H](C(=O)N1CCC[C@H]1C(=O)N[C@@H](Cc1ccccc1)C(=O)N1CCC[C@H]1C(=O)O)C(C)C [Elabela-21]
  signaling bias profile (in words): much stronger activity on the cAMP pathway; also recorded: weaker activity; also recorded: very weak effects on β-arrestin dependent pathways
